From patent US20140105837A1, “NOVEL ARYL C-XYLOSIDE COMPOUNDS, AND COSMETIC USE” (L'OREAL, priority 2008, published 2014) come the findings set out here.

Format in all cases: cell-based
The subject of assay [1] is keratinocytes. The assay can be described thus: Sulfated glycosaminoglycan synthesis on keratinocytes (35S-sulfate radioactive label incorporation). The note with it: for % glycosaminoglycan synthesis relative to the control: control = 100; for Mean value (incorporated radioactivity, sulfated GAGs): n=3. As to the method:
(§1) Study of the effect of C-glycoside derivatives on sulfated glycosaminoglycan synthesis on fibroblasts and on keratinocytes:
(§2) The study is carried out by measuring the incorporation of radioactive glucosamine into the matrix neosynthesized by cultures of normal human dermal fibroblasts or by keratinocytes. The incorporation of radioactive glucosamine indicates specific neosynthesis of glycosaminoglycans via an incorporation of the acetylated form of this glucosamine.
The keratinocyte cultures are performed in keratinocyte-SFM medium sold by the company Gibco, in the presence of EGF (Epidermal Growth Factor) (0.25 ng/ml), of pituitary extract (25 μg/ml) and of gentamycin (25 μg/ml).
The fibroblasts and the keratinocytes were cultured in 96-well plates. At confluence, the culture medium was replaced with suitable culture medium containing or not containing (control) the test compound or the reference, and then the cells were incubated for 48 hours. The 35S-sulfate radioactive label was added (40 μCi final concentration) and the cells were incubated for a further 24 hours. […]
(§3) The extracellular matrix glycosaminoglycans were extracted with one volume of chaotropic buffer (50 mM Tris/HCl, 4 M guanidine, 5 mM, EDTA, pH 8.0). The sulfated GAGs were purified by ion exchange chromatography: absorption of the anionic molecules onto Q-Sepharose beads under high-stringency conditions, desorption of the molecules which are not very anionic and molecules which are moderately anionic, with a 6 M urea solution containing […] NaCl, and then washing.
(§4) The radioactivity incorporated into the highly […] molecules that have remained on the support (predominantly GAGs) was measured by liquid scintillation.
(§5) The results are evaluated relative to a control consisting of cells which have not been treated with a compound of formula (I).
A positive control (CaCl2 at 1.4 mM) known to stimulate GAG synthesis is introduced into the test carried out on keratinocytes, as a positive reference.
(§6) The results are expressed as percentage variation in glycosaminoglycan synthesis relative to the control.

Assay [2] concerns normal human dermal fibroblasts. As to the kind of experiment: Sulfated glycosaminoglycan synthesis on fibroblasts (35S-sulfate radioactive label incorporation). The note with it: for % glycosaminoglycan synthesis relative to the control / Mean value (incorporated radioactivity, sulfated GAGs): fibroblasts; for % glycosaminoglycan synthesis relative to the control: control = 100; for Mean value (incorporated radioactivity, sulfated GAGs): n=3; for Effectiveness for increasing sulfated GAG synthesis (in words): summary of the tests on fibroblasts and keratinocytes. The protocol:
as §1, §2
The fibroblast cultures are performed according to conventional cell culture methods, namely in DMEM medium sold by the company Gibco, in the presence of L-glutamine (2 mM), of penicillin (50 IU/ml) and of 10% of fetal calf serum (Gibco).
The fibroblasts and the keratinocytes were cultured in 96-well plates. At confluence, the culture medium was replaced with suitable culture medium containing or not containing (control) the test compound or the reference, and then the cells were incubated for 48 hours. The 35S-sulfate radioactive label was added (40 μCi final concentration) and the cells were incubated for a further 24 hours. All the conditions were carried out 3 times.
as §3, §4, §5
A positive control (TGFβ at 10 ng/ml) known to stimulate GAG synthesis is introduced into the test carried out on fibroblasts, as a positive reference.
as §6

Assay [3] concerns keratinocytes. The assay can be described thus: Sulfated glycosaminoglycan synthesis on keratinocytes (35S-sulfate radioactive label incorporation). The note with it: other experimental plan, n=2.
The test system of assay [4] is normal human dermal fibroblasts. The assay can be described thus: Sulfated glycosaminoglycan synthesis on fibroblasts (35S-sulfate radioactive label incorporation). The note with it: other experimental plan, n=2.
Where [5] appears, read: 0.1 mM, other experimental plan.

For the molecule `[Ca+2].[Cl-].[Cl-]` [CaCl2, reference compound], in assay [1] (CaCl2 at 1.4 mM), the “% glycosaminoglycan synthesis relative to the control” value amounted to 117% and the “Mean value (incorporated radioactivity, sulfated GAGs)” value (shortened to “Mean value”) was 5273 cpm.
In the case of `COc1cc(CCC(O)CC2OC[C@@H](O)[C@H](O)[C@H]2O)ccc1O` (stereo partly drawn) [Compound 1, 1-(α,β)-D-xyopyranosyl-4-(4-hydroxy-3-methoxyphenyl)butan-2-ol], the “% glycosaminoglycan synthesis relative to the control” value in assay [1] (0.37 mM) was determined as 707%; in assay [1] (1.1 mM), 813%; in assay [2] (40 μM), 351%; in assay [2] (120 μM), 657%. Further, the “Mean value” value stood at 31999 cpm in assay [1] (0.37 mM), 36795 cpm in assay [1] (1.1 mM), 8130 cpm in assay [2] (40 μM) and 15318 cpm in assay [2] (120 μM). For the same molecule, the “Effectiveness for increasing sulfated GAG synthesis (in words)” value in assay [2] is recorded as “highly effective”; in assay [2] (listed as example 2), “very effective”.
With `Oc1ccccc1CCC(O)CC1OC[C@@H](O)[C@H](O)[C@H]1O` (stereo partly drawn) [Compound 8, 1-(α,β)-D-xylopyranosyl-4-(2-hydroxyphenyl)butan-2-ol], the “% glycosaminoglycan synthesis relative to the control” value in assay [1] (setting [5]) is reported as 316%; in assay [1] (1 mM, other experimental plan), 665%; in assay [2] (setting [5]) it was 117%; in assay [2] (1 mM, other experimental plan), 412%. Also, the “Effectiveness for increasing sulfated GAG synthesis (in words)” value in assay [2] is “highly effective”. Moreover, the “Mean value” value amounted to 40552 cpm in assay [3] (0.1 mM), 85456 cpm in assay [3] (1 mM), 2938 cpm in assay [4] (0.1 mM) and 10371 cpm in assay [4] (1 mM).
Take `OC(CCc1ccccc1)CC1OC[C@@H](O)[C@H](O)[C@H]1O` (stereo partly drawn) [Compound 9, 1-(α,β)-D-xylopyranosyl-4-phenylbutan-2-ol]: the “% glycosaminoglycan synthesis relative to the control” value in assay [1] (0.1 μM, other experimental plan) came to 563%; in assay [1] (1 μM, other experimental plan), 547%; in assay [2] (setting [5]) it was 430%; in assay [2] (1 mM, other experimental plan) it was 938%. The “Effectiveness for increasing sulfated GAG synthesis (in words)” value in assay [2] is given as “highly effective”. For the same molecule, the “Mean value” value in assay [3] (0.1 μM) is on record as 24106 cpm; in assay [3] (1 μM) it was 99041 cpm; in assay [4] (0.1 mM), 10838 cpm; in assay [4] (1 mM) it was 23620 cpm.
On to “TGFβ: positive control known to stimulate GAG synthesis, used at 10 ng/ml on fibroblasts [reference compound]”, for which, in assay [2] (TGFβ at 10 ng/ml), the “% glycosaminoglycan synthesis relative to the control” value is given as 174% and the “Mean value” value amounted to 4062 cpm.
